Data reported in US20020061924A1, “Agent containing tocotrienol for drug” (priority 2000, published 2002).

How the values were obtained:
[1] = tested on: human erythrocyte membrane; experiment: Reactivity with AAPH radicals on human erythrocyte membrane (residual rate); type: cell-based; conditions: for Residual Rate (%) 1 hr. / Residual Rate (%) 2 hrs. / Residual Rate (%) 3 hrs.: 10% erythrocyte suspension, 75 mM AAPH, 37° C.; for Residual Rate (%) 1 hr.: after 1 hour; for Residual Rate (%) 2 hrs.: after 2 hours; for Residual Rate (%) 3 hrs.: after 3 hours
Procedure: Human erythrocytes to be tested were prepared from blood of a healthy person by treating the blood according the method disclosed in Lipids, vol. 33 (6), p589-595 (1998). Actually, blood drawn from a healthy person was put in a test tube containing EDTA-2Na (1 mg/ml), and certrifuged at 1000×g at 4° C. for 20 minutes to be separated into erythrocytes and plasma. The erythrocytes were washed three times with 5 parts by volume of phosphate-buffered saline (PBS), and centrifuged exactly at 1000×g for 20 minutes to obtain a definite volume of packed erythrocytes.
The erythrocytes were subjected to hemolysis test according to the method of Miki et al., Arch. Biochem. Biophys. 258, p373-380. 0.5 ml of the human erythrocytes were suspended into 4 parts by volume of PBS, and a-tocotrienol ethanol solution was added thereto wherein the final ethanol concentration was made 0.5% (v/v) or less. After incubating the mixture at 37° C. for 30 minutes, the erythrocytes were washed. 10% suspension of the erythrocytes was incubated again. To the suspension, 75 mM AAPH-PBS solution was added, and oxidation was carried out at 37° C. in a dark place with stirring. The state of erythrocyte membrane, which was destroyed by radicals to induce hemolysis, was observed.
Similarly, the human erythrocytes were incubated with α-tocopherol for 30 minutes, washed, and 10% suspension of the erythrocytes was incubated again. To the suspension, 75 mM AAPH was added, and the state of erythrocyte membrane, which was destroyed by radicals to induce hemolysis, was observed.
Reactivity of α-tocotrienol and α-tocopherol with radicals on human erythrocyte membrane was examined, and residual rate of α-tocotrienol and α-tocopherol in solution was measured after 1, 2 and 3 hours.

Human erythrocytes = experiment: Deformability of erythrocytes by Micro-Channel Array Flow Analyzer (MC-FAN); type: cell-based; conditions: for Passage Time: Table 1, control 54 ± 3; for Ratio to Control: passage time relative to control (1.00)
Procedure: Deformability of erythrocytes was measured using a Micro-Channel Array Flow Analyzer (MC-FAN) illustrated in FIG. 3 which measures time for passing total volume of an erythrocyte (8-10 μm) through a pore (6 μm) of a microchip.
Human erythrocytes were incubated with 43.3 μM α-tocotrienol for 30 minutes to incorporate the α-tocotrienol into the erythrocytes, and deformability of the erythrocytes was measured by the MC-FAN. As a control sample, human erythrocytes without α-tocotrienol were prepared, and the deformability was also measured.
In comparison, human erythrocytes were incubated with 40 μM α-tocopherol (vitamin E, Tokyo Kasei Kogyo) for 30 minutes to incorporate the α-tocopherol into the erythrocytes, and deformability of the erythrocytes was measured by the MC-FAN. As a result, passage time of the erythrocyte with a -tocopherol was 36 sec/ 100 μl RBC.

[2] = tested on: hemolysis by dialuric acid; conditions: amount relative to comparator; cited from earlier work
[3] = Antioxidant action on monolayer liposome (iron-ascorbic acid, AAPH, lipoxigenase systems); conditions: tocotrienol compared with tocopherol
Procedure: (§1) Strength of antioxidant action of tocotrienol and tocopherol on monolayer liposome and erythrocyte membrane was evaluated by using iron-ascorbic acid, 2, 2′-azobis (2-amidinopropane).2HCl (AAPH) which is a water-soluble radical generator and lipoxigenase reaction system.

erythrocyte membrane = experiment: Antioxidant action on erythrocyte membrane (iron-ascorbic acid, AAPH, lipoxigenase systems); type: cell-based; conditions: tocotrienol compared with tocopherol
Procedure: as §1

Compound	Residual Rate (%) 1 hr. [1] [%]	Residual Rate (%) 2 hrs. [1] [%]	Residual Rate (%) 3 hrs. [1] [%]	Passage Time (Human erythrocytes) [sec/100 μ1 RBC]	passage time of the erythrocyte (Human erythrocytes; incubated with 40 μM for 30 minutes) [sec/ 100 μl RBC]	Ratio to Control (Human erythrocytes)	inhibition of hemolysis by dialuric acid [2]	passage time of the erythrocyte (Human erythrocytes; incubated with 43.3 μM for 30 minutes, without compound 54)	strength of antioxidant action on monolayer liposome [3]	incorporation (reaction rate with radicals) relative to tocopherol ([1]; from residual rates on human erythrocyte membrane)	strength of antioxidant action on erythrocyte membrane (erythrocyte membrane)	ability of improving the deformability of erythrocytes (Human erythrocytes; comparison of tocotrienol with tocopherol)
Cc1c(C)c2c(c(C)c1O)CC[C@@](C)(CCC[C@H](C)CCC[C@H](C)CCCC(C)C)O2 [α-tocopherol, reference compound]	41 ± 3	25 ± 4	19 ± 3	34 ± 5	36	0.63	–	–	–	–	–	–
CC(C)=CCC/C(C)=C/CC/C(C)=C/CC[C@]1(C)CCc2c(C)c(O)c(C)c(C)c2O1 [α-tocotrienol]	12 ± 2	7 ± 1	4 ± 1	26 ± 5	–	0.47	inhibit hemolysis by dialuric acid even in an amount of one third	26 sec/100 μl erythrocyte (RBC)	–	–	–	–
tocopherol [reference compound]	–	–	–	–	–	–	–	–	difference in the strength of antioxidant action on monolayer liposome was not found	–	–	–
tocotrienol	–	–	–	–	–	–	–	–	difference in the strength of antioxidant action on monolayer liposome was not found	about three to four times as much as that of tocopherol	much greater than that of tocopherol	more excellent than tocopherol
